Data taken from ChEMBL document CHEMBL1250481, “Isoxazole analogs of curcuminoids with highly potent multidrug-resistant antimycobacterial activity” (2010).
≈ marks a conversion by molar mass, not a printed value.

Columns and labels:
Format in all cases: functional
[1] = tested on: Mycobacterium tuberculosis; test: Antimycobacterial activity against isoniazid, rifampin, ethambutol and streptomycin-resistant Mycobacterium tuberculosis M21 after 24 hrs by microtiter alamar blue assay; conditions: M21, 24 h
[2] = tested on: Mycobacterium tuberculosis; test: Antimycobacterial activity against isoniazid, rifampin, ethambutol and streptomycin-resistant Mycobacterium tuberculosis M8 after 24 hrs by microtiter alamar blue assay; conditions: M8, 24 h
[3] = tested on: Mycobacterium tuberculosis; test: Antimycobacterial activity against isoniazid, rifampin and streptomycin-resistant Mycobacterium tuberculosis M3 after 24 hrs by microtiter alamar blue assay; conditions: M3, 24 h
[4] = tested on: Mycobacterium tuberculosis; test: Antimycobacterial activity against isoniazid and rifampin-resistant Mycobacterium tuberculosis M11 after 24 hrs by microtiter alamar blue assay; conditions: M11, 24 h
[5] = tested on: Mycobacterium tuberculosis; test: Antimycobacterial activity against isoniazid, rifampin, ethambutol and streptomycin-resistant Mycobacterium tuberculosis M4 after 24 hrs by microtiter alamar blue assay; conditions: M4, 24 h
[6] = tested on: Mycobacterium tuberculosis; test: Antimycobacterial activity against isoniazid and rifampin -resistant Mycobacterium tuberculosis M27 after 24 hrs by microtiter alamar blue assay; conditions: M27, 24 h
[7] = tested on: Mycobacterium tuberculosis; test: Antimycobacterial activity against isoniazid, rifampin and ethambutol-resistant Mycobacterium tuberculosis M16 after 24 hrs by microtiter alamar blue assay; conditions: M16, 24 h
[8] = tested on: Mycobacterium tuberculosis; test: Antimycobacterial activity against isoniazid and rifampin-resistant Mycobacterium tuberculosis M6 after 24 hrs by microtiter alamar blue assay; conditions: M6, 24 h
[9] = tested on: Mycobacterium tuberculosis; test: Antimycobacterial activity against isoniazid, rifampin, ethambutol, streptomycin, ofloxacin and ciprofloxacin-resistant Mycobacterium tuberculosis M48 after 24 hrs by microtiter alamar blue assay; conditions: M48, 24 h
[10] = tested on: Mycobacterium tuberculosis; test: Antimycobacterial activity against isoniazid and rifampin -resistant Mycobacterium tuberculosis M22 after 24 hrs by microtiter alamar blue assay; conditions: M22, 24 h
[11] = tested on: Mycobacterium tuberculosis; test: Antimycobacterial activity against isoniazid, rifampin, ethambutol, streptomycin, ofloxacin and ciprofloxacin-resistant Mycobacterium tuberculosis M53 after 24 hrs by microtiter alamar blue assay; conditions: M53, 24 h
[12] = tested on: Mycobacterium tuberculosis; test: Antimycobacterial activity against isoniazid, rifampin, ethambutol, streptomycin, ofloxacin and ciprofloxacin-resistant Mycobacterium tuberculosis M46 after 24 hrs by microtiter alamar blue assay; conditions: M46, 24 h
[13] = tested on: Mycobacterium tuberculosis; test: Antimycobacterial activity against isoniazid, rifampin and streptomycin-resistant Mycobacterium tuberculosis M5 after 24 hrs by microtiter alamar blue assay; conditions: M5, 24 h

| SMILES | MIC [1] [µg/mL] | MIC [2] [µg/mL] | MIC [3] [µg/mL] | MIC [4] [µg/mL] | MIC [5] [µg/mL] | MIC [6] [µg/mL] | MIC [7] [µg/mL] | MIC [8] [µg/mL] | MIC [9] [µg/mL] | MIC [10] [µg/mL] | MIC [11] [µg/mL] | MIC [12] [µg/mL] | MIC [13] [µg/mL] |
| --- | --- | --- | --- | --- | --- | --- | --- | --- | --- | --- | --- | --- | --- |
| CCCCCOc1ccc(/C=C/c2cc(/C=C/c3ccc(O)c(OC)c3)no2)cc1OC | 6.25 (≈ 14.4 µM) | 6.25 (≈ 14.4 µM) | 1.56 (≈ 3.58 µM) | 6.25 (≈ 14.4 µM) | 1.56 (≈ 3.58 µM) | 1.56 (≈ 3.58 µM) | 1.56 (≈ 3.58 µM) | 3.12 (≈ 7.18 µM) | 3.12 (≈ 7.18 µM) | 6.25 (≈ 14.4 µM) | 3.12 (≈ 7.18 µM) | 1.56 (≈ 3.58 µM) | 1.56 (≈ 3.58 µM) |
| COc1cc(/C=C/c2cc(/C=C/c3ccc(OC)c(OC)c3)no2)ccc1O | 3.12 (≈ 8.24 µM) | 3.12 (≈ 8.24 µM) | 0.195 (≈ 0.514 µM) | 3.12 (≈ 8.24 µM) | 1.56 (≈ 4.11 µM) | 0.195 (≈ 0.514 µM) | 1.56 (≈ 4.11 µM) | 0.39 (≈ 1.03 µM) | 1.56 (≈ 4.11 µM) | 0.39 (≈ 1.03 µM) | 3.12 (≈ 8.24 µM) | 1.56 (≈ 4.11 µM) | 3.12 (≈ 8.24 µM) |
| COc1cc(/C=C/c2cc(/C=C/c3ccc(OC)c(OC)c3)on2)ccc1O | 12.5 (≈ 32.9 µM) | 12.5 (≈ 32.9 µM) | 0.78 (≈ 2.06 µM) | 12.5 (≈ 32.9 µM) | 6.25 (≈ 16.5 µM) | 0.78 (≈ 2.06 µM) | 12.5 (≈ 32.9 µM) | 1.56 (≈ 4.11 µM) | 12.5 (≈ 32.9 µM) | 1.56 (≈ 4.11 µM) | 12.5 (≈ 32.9 µM) | 6.25 (≈ 16.5 µM) | 12.5 (≈ 32.9 µM) |
| CCCCCOc1ccc(/C=C/c2cc(/C=C/c3ccc(O)c(OC)c3)on2)cc1OC | 3.12 (≈ 7.18 µM) | 3.12 (≈ 7.18 µM) | 0.39 (≈ 0.895 µM) | 3.12 (≈ 7.18 µM) | 1.56 (≈ 3.58 µM) | 0.39 (≈ 0.895 µM) | 1.25 (≈ 2.87 µM) | 0.78 (≈ 1.79 µM) | 3.12 (≈ 7.18 µM) | 0.78 (≈ 1.79 µM) | 3.12 (≈ 7.18 µM) | 1.56 (≈ 3.58 µM) | 1.56 (≈ 3.58 µM) |
